# From patent US9834567B1, “Crystalline form of cefamandole nafate compound, preparation and preparing method thereof” (TIANJIN UNIVERSITY, priority 2014, dated 2017)
# Tests used:
# Rabbits [1] = type: in vivo
# Experimental: (§1) The novel crystalline form of Cefamandole Nafate compound of the present invention was tested by toxic reaction tests shown as follows (taking the crystalline form of Cefamandole Nafate obtained in Example 1 for example):
# Rabbits were injected with 0.4˜2.1 g of Cefamandole Nafate each time with the interval of 15 min, and recording the changes of blood pressure and electrocardiogram.
# Rabbits [2] = experiment: Toxic reaction test: 15-day daily intravenous injection in rabbits (renal); type: in vivo; conditions: 250 mg/kg intravenously daily for 15 days
# Experimental: as §1
# Rabbits were divided into 2 groups, every 4 animals in each group, and daily intravenously injected with 250 mg/kg Cefamandole Nafate for 15 days, while the control group was injected with 5 ml saline per day.
# [3] = Storage stability of the crystalline product; type: physicochemical
# Experimental: Said method has the following advantageous effects: simple procedure, easy operation, and low energy consumption. The prepared product has a melting range of 160˜170° C. with good thermal stability, and is conducive to the long-term preservation. […] The product is easy to crush and processed into dosage forms of a pharmaceutical composition, as well as low cost, and easier to implement on commercial and industrial scale.
# [4] = Toxic reaction test: acute toxicity (LD50) in mice; conditions: mouse, in vivo
# Experimental: as §1
# (§2) Mice were divided into 4 dose groups by weights, every 10 animals in each group, and administered by intravenous injection, subcutaneous injection and intraperitoneal injection with a concentration of […].
# [5] = Toxic reaction test: acute toxicity (LD50) in rats; conditions: rat, in vivo, intravenous injection
# Experimental: as §1, §2
# [6] = anesthetized rabbits, intravenous injection, 0.4~2.1 g each time
# [7] = rabbits, dosage up to 4800 mg/kg
SMILES,breathing (Rabbits [1]; [6]),electrocardiogram and heart rate (Rabbits [1]; [6]),"death (Rabbits [1]; rabbits, dosage further increased above 4800 mg/kg)",blood pressure (Rabbits [1]; [7]),electrocardiogram (Rabbits [1]; [7]),respiration (Rabbits [1]; [7]),renal tissue concentration (Rabbits [2]),renal toxicity (Rabbits [2]),degradation after placing for a long time [3],LD50 ([4]; intravenous injection) [mg/kg],"LD50 ([4]; ip, intraperitoneal injection) [mg/kg]","LD50 ([4]; sc, subcutaneous injection) [mg/kg]",LD50 [5] [mg/kg]
"Cn1nnnc1SCC1=C(C(=O)[O-])N2C(=O)[C@@H](NC(=O)[C@H](OC=O)c3ccccc3)[C@H]2SC1.[Na+] [Cefamandole Nafate, (6R, 7R)-7-R-(2-formyloxy-2-phenylacetamide)-3-[[(1-methyl-1H-tetrazol-5-yl)thio]methyl]-8-oxo-5-thia-1-azabicyclo [4.2.0] oct-2-ene-2-carboxylate sodium salt]",deepened and accelerated,did not change significantly,death occurred,significantly decreased,"prolonged in P-R interval, depressed in ST segment, and ventricular arrhythmias",inhibited,increased,low,,,,,
"Cn1nnnc1SCC1=C(C(=O)[O-])N2C(=O)[C@@H](NC(=O)[C@H](OC=O)c3ccccc3)[C@H]2SC1.[Na+] [Example 1, (6R, 7R)-7-R-(2-formyloxy-2-phenylacetamide)-3-[[(1-methyl-1H-tetrazol-5-yl)thio]methyl]-8-oxo-5-thia-1-azabicyclo [4.2.0] oct-2-ene-2-carboxylate sodium salt]",,,,,,,,,without degradation,4220,4500,7260,3420
